≈ marks a conversion by molar mass, not a printed value. Like-named read-outs stand apart in the source and are kept apart here.
Assays:
[1] = target: T1, αvβ3 receptor (αvβ3 from human A375 cells) (Homo sapiens, UniProt P05106+P06756); assay: αvβ3 binding test (echistatin displacement, SPA)
T1 construct: αvβ3 from human A375 cells was purified analogously to a procedure described by Wong et al; endogenous in cells; host or cells: human A375 cells (endogenous receptor, detergent-solubilised and purified)
Experimental: αvβ3 from human A375 cells was purified analogously to a procedure described by Wong et al. in Molecular Pharmacology 50, 529–537 (1996). In each case, 10 μL of αvβ3 (5 ng) in TBS pH 7.6, 2 mM CaCl2, 1 mM MgCl2, 1% n-octylglucopyranoside (Sigma); 10 μL of test substance in TBS pH 7.6, 0.1% DMSO and 45 μL of TBS pH 7.6, 2 mM CaCl2, 1 mM MgCl2, 1 mM MnCl2 were incubated at room temperature for 1 h. In each case, 25 μL of WGA SPA beads (Amersham, 4 mg/ml) and 10 μL of echistatin (0.1 μCi, Amersham, chloramine-T labelled) were then added. After 16 h at room temperature, the samples were measured in a scintillation measuring apparatus (Wallac 1450).

[2] = test system: B16F10 mouse melanoma cell line; type: cell-based
Experimental: (§1) The human large intestine cell lines SW 480 and HT29 (ATCC No. CCL 228) and HTB38 and the mouse melanoma cell line B16F10 (CRL 6475) were grown to confluence in Roux dishes in seromed® RPMI 1640 medium (from Biochrom KG, Berlin) with addition of 10% FCS. They were then trypsinized and taken up in RPMI plus 10% FCS to a cell count of 50,000 cells or, for B16F10, 20,000 cells per mL. 100 μL of cell suspension per well were added to a 96 microwell plate and incubated at 37° C. for 1 day in a CO2 incubator. A further 100 μL of RPMI medium and 1 μL of DMSO were then added with the test substances. The growth was checked after day 6. For this purpose, 25 μL of MTT solution (3-(4,5-dimethylthiazol-2-yl)-2,5-diphenyltetrazolium bromide) were added to each well at a starting concentration of 5 mg/mL of water. The plate was incubated at 37° C. for 5 hours in a CO2 incubator. The medium was then aspirated and 100 1L of i-propanol/well were added. After shaking with 100 μL of water for 30 min, the extinction was measured at 595 nm using a Multiplate Reader (BIO-RAD 3550-UV).
(§2) The cytostatic action is indicated in Table 3 as an IC50 value, in each case for the individual cell lines.

[3] = test system: HT29 human large intestine cell line; type: cell-based
Experimental: as §1, §2

[4] = test system: SW480 human large intestine cell line; type: cell-based
Experimental: as §1, §2

[5] = test system: melanoma xenograft (MEXF 989); type: in vivo, athymic nude mice (NMRI nu/nu strain)
[6] = test system: renal xenograft (RXF 944)
Description: (§3) In all in-vivo experiments for investigating the inhibition of tumour growth, athymic nude mice (NMRI nu/nu strain) were used. The tumour was developed by serial passage in nude mice, The human origin of the tumour was confirmed by isoenzymatic and immunohistochemical methods.
(§4) The tumour was implanted subcutaneously in both flanks of nu/nu nude mice 6 to 8 weeks old. […] The mice were assigned to the treatment group or the control group (5 mice per group having 8 to 10 assessable tumours) by randomization.
(§5) The size of the tumours was measured in two dimensions by means of a slide gauge. The tumour volume which correlated well with the cell count, was then used for all assessments. The volume was calculated according to the formula “length×breadth×breadth/2” ([a×b^2]/2; a and b representing two diameters arranged at right angles).
(§6) The values of the relative tumour volume (RTV) were calculated for each individual tumour by dividing the tumour size on day X with the tumour size on day 0 (at the time of randomization). The average values of the RTV were then used for the further assessment.
(§7) The inhibition of the increase of the tumour volume (tumour volume of the test group/control group, T/C, in percent) was the final measured value.

[7] = test system: breast cancer model (MX-1)
Description: as §3, §4, §5, §6, §7
The compounds are dissolved in 1% aqueous dextrose solution and administered intravenously from day 1–3 and day 15–17.

[8] = test system: hemopoietic stem cells (bone marrow cells); assay: cells; type: cell-based, mice
Experimental: Bone marrow cells are flushed out of the femur of mice. 10^5 cells are incubated in McCoy 5A medium (0.3% agar) together with recombinant murine GM-CSF (Genzyme; parent cell colony formation) and the substances (10^−4 to 100 μg/ml) at 37° C. and 7% CO2. 7 days later, the colonies (<50 cells) and clusters (17–50 cells) are counted.

[9] = IC50 values of the binding to the αVβ3 receptor
[10] = read-out: IC50 values of the binding to the αVβ3 receptor
[11] = MEXF 989, 6 mg/kg/day intravenously day 1–3 and day 15–17
[12] = RXF 944, 6 mg/kg/day intravenously day 1–3 and day 15–17
[13] = MX-1, 6 mg/kg/day intravenously day 1–3 and day 15–17

T1 sequence (P06756 31-889 limits assumed): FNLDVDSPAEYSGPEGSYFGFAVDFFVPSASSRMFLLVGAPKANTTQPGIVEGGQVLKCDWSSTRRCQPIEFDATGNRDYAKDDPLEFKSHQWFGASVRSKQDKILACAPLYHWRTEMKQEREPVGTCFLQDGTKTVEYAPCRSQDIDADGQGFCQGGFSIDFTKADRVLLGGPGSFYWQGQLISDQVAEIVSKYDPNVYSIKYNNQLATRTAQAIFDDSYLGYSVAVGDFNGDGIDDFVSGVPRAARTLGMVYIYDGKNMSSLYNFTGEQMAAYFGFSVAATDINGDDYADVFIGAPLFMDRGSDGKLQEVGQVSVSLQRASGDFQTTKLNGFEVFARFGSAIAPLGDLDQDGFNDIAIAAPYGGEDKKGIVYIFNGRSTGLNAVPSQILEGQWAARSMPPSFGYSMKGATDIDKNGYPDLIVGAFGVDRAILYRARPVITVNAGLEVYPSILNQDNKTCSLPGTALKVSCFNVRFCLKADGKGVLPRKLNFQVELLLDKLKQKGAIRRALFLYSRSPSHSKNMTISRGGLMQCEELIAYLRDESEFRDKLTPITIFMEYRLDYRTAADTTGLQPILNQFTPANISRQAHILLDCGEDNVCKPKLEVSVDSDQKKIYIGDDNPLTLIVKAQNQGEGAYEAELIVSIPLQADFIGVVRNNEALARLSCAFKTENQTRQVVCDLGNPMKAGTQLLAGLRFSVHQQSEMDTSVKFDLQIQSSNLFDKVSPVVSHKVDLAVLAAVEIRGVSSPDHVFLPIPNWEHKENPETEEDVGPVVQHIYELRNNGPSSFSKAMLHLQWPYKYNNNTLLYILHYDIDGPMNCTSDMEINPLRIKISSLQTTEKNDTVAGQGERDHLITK
T1 sequence (P06756 891-1048 partner limits assumed): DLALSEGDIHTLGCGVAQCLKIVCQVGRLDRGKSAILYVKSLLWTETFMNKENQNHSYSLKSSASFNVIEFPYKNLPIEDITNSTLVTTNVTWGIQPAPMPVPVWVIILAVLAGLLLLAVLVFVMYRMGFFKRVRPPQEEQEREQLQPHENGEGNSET
T1 sequence (P05106 27-788): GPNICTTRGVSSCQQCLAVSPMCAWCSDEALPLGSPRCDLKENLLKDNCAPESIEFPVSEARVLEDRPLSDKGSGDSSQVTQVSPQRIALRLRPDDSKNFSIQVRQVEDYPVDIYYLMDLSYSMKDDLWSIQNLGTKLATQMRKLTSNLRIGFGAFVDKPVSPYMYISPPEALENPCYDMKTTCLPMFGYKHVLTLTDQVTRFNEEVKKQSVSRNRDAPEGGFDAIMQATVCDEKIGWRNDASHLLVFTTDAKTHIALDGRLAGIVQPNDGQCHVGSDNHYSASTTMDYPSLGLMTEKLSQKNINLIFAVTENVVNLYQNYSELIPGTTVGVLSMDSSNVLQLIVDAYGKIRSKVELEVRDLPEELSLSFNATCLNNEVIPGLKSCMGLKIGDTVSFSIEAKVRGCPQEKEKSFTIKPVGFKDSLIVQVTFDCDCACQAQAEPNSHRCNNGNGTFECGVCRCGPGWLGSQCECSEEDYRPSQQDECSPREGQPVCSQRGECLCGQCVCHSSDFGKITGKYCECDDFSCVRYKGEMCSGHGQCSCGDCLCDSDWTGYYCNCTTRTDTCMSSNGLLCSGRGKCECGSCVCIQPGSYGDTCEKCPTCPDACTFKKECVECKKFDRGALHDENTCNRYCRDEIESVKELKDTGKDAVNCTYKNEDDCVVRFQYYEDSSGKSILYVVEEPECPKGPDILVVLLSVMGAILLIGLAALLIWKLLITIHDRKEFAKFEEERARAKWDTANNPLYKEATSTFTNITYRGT

SMILES | IC50 [2] | IC50 [3] | IC50 [4] | toxicity against stem cells in vitro compared to camptothecin (in words) [8] | IC50 [1, 10] | further results
CCCNC(=O)Nc1cccc(S(=O)(=O)Nc2cccc(C(CC(=O)[O-])NC(=O)Nc3ccc(NC(=S)NCC(=O)N4CCC[C@H]4C(=O)N[C@H](C(=O)O[C@]4(CC)C(=O)OCc5c4cc4n(c5=O)Cc5cc6ccccc6nc5-4)C(C)C)cc3)c2)c1.[Na+] (single isomer, unassigned) [Example 1] | 160 nM | 60 nM | 150 nM | drastically reduced toxicity against stem cells in vitro compared to camptothecin | – | IC50 [1, 9]: 8 nM; lethality ([5]; MEXF 989, 18 mg/kg/day intravenously day 1–3 and day 15–17): 1/5; lethality ([5]; MEXF 989, 24 mg/kg/day intravenously day 1–3 and day 15–17): 1/5; lethality ([6]; RXF 944, 18 mg/kg/day intravenously day 1–3 and day 15–17): 1/7; lethality ([6]; RXF 944, 24 mg/kg/day intravenously day 1–3 and day 15–17): 0/7; lethality ([7]; MX-1, 18 mg/kg/day intravenously day 1–3 and day 15–17): 0/5
CCCNC(=O)Nc1cccc(S(=O)(=O)Nc2cccc(C(CC(=O)[O-])NC(=O)Nc3ccc(NC(=S)NCC(=O)N4CCC[C@H]4C(=O)N[C@H](C(=O)O[C@]4(CC)C(=O)OCc5c4cc4n(c5=O)Cc5cc6ccccc6nc5-4)C(C)C)cc3)c2)c1.[Na+] (single isomer, unassigned) [Example 2] | 400 nM | 150 nM | 400 nM | drastically reduced toxicity against stem cells in vitro compared to camptothecin | – | IC50 [1, 9]: 800 nM
CCCNC(=O)Nc1cccc(S(=O)(=O)Nc2cccc(C(CC(=O)O)NC(=O)Nc3ccc(NC(=S)N[C@@H](C)C(=O)N4CCC[C@H]4C(=O)N[C@H](C(=O)O[C@]4(CC)C(=O)OCc5c4cc4n(c5=O)Cc5cc6ccccc6nc5-4)C(C)C)cc3)c2)c1 (single isomer, unassigned) [Example 3] | 700 nM | 150 nM | 500 nM | drastically reduced toxicity against stem cells in vitro compared to camptothecin | 15 nM | lethality [5, 11]: 0/5; optimal T/C [5, 11]: 10.3%; inhibition of the tumour growth (in words) ([5]; MEXF 989, intravenously day 1–3 and day 15–17): effected inhibitions of the tumour growth; lethality [6, 12]: 1/7; optimal T/C [6, 12]: 24.0%; inhibition of the tumour growth (in words) ([6]; RXF 944, intravenously day 1–3 and day 15–17): effected inhibitions of the tumour growth; lethality [7, 13]: 0/5; optimal T/C [7, 13]: 12.4%; inhibition of the tumour growth (in words) ([7]; MX-1, intravenously day 1–3 and day 15–17): effected inhibitions of the tumour growth
CCCNC(=O)Nc1cccc(S(=O)(=O)Nc2cccc(C(CC(=O)O)NC(=O)Nc3ccc(NC(=S)N[C@@H](C)C(=O)N4CCC[C@H]4C(=O)N[C@H](C(=O)O[C@]4(CC)C(=O)OCc5c4cc4n(c5=O)Cc5cc6ccccc6nc5-4)C(C)C)cc3)c2)c1 (single isomer, unassigned) [Example 4] | 700 nM | 150 nM | 600 nM | drastically reduced toxicity against stem cells in vitro compared to camptothecin | 500 nM | –
CCCNC(=O)Nc1cccc(S(=O)(=O)Nc2cccc(C(CC(=O)O)NC(=O)Nc3ccc(NC(=S)N[C@@H](Cc4c[nH]cn4)C(=O)N4CCC[C@H]4C(=O)N[C@H](C(=O)O[C@]4(CC)C(=O)OCc5c4cc4n(c5=O)Cc5cc6ccccc6nc5-4)C(C)C)cc3)c2)c1 (single isomer, unassigned) [Example 5] | 1000 nM | 300 nM | 700 nM | – | 30 nM | –
CCCNC(=O)Nc1cccc(S(=O)(=O)Nc2cccc(C(CC(=O)O)NC(=O)Nc3ccc(NC(=S)N[C@@H](CC(N)=O)C(=O)N4CCC[C@H]4C(=O)N[C@H](C(=O)O[C@]4(CC)C(=O)OCc5c4cc4n(c5=O)Cc5cc6ccccc6nc5-4)C(C)C)cc3)c2)c1 (single isomer, unassigned) [Example 6] | 600 nM | 200 nM | 400 nM | – | 100 nM | –
CCCNC(=O)Nc1cccc(S(=O)(=O)Nc2cccc(C(CC(=O)O)NC(=O)Nc3ccc(NC(=S)N[C@@H](CCC)C(=O)N4CCC[C@H]4C(=O)N[C@H](C(=O)O[C@]4(CC)C(=O)OCc5c4cc4n(c5=O)Cc5cc6ccccc6nc5-4)C(C)C)cc3)c2)c1 (single isomer, unassigned) [Example 7] | 1000 nM | 350 nM | 600 nM | – | 100 nM | –
CCCNC(=O)Nc1cccc(S(=O)(=O)Nc2cccc(C(CC(=O)O)NC(=O)Nc3ccc(NC(=S)N[C@@H](CC(=O)O)C(=O)N4CCC[C@H]4C(=O)N[C@H](C(=O)O[C@]4(CC)C(=O)OCc5c4cc4n(c5=O)Cc5cc6ccccc6nc5-4)C(C)C)cc3)c2)c1 (single isomer, unassigned) [Example 8] | 300 nM | 50 nM | 50 nM | – | – | –
CCCNC(=O)Nc1cccc(S(=O)(=O)Nc2cccc(C(CC(=O)O)NC(=O)Nc3ccc(NC(=S)NCC(=O)N4CCC[C@H]4C(=O)N[C@@H](CC(C)C)C(=O)O[C@]4(CC)C(=O)OCc5c4cc4n(c5=O)Cc5cc6ccccc6nc5-4)cc3)c2)c1 (single isomer, unassigned) [Example 9] | 80 nM | 30 nM | 70 nM | – | – | –
CCCNC(=O)Nc1cccc(S(=O)(=O)Nc2cccc(C(CC(=O)O)NC(=O)Nc3ccc(NC(=S)N[C@@H](C)C(=O)N4CCC[C@H]4C(=O)N[C@@H](CC(C)C)C(=O)NC4C=CCC5CN(c6c(F)cc7c(=O)c(C(=O)O)cn(C8CC8)c7c6Cl)CC54)cc3)c2)c1 (single isomer, unassigned) [Example 12] | – | – | – | – | 30 nM | IC50 ([2]; 6 days): 2000 nM; IC50 ([3]; 6 days): 600 nM; IC50 ([4]; 6 days): 1000 nM
CC[C@@]1(O)C(=O)OCc2c1cc1n(c2=O)Cc2cc3ccccc3nc2-1 [camptothecin, 20(S)-Camptothecin, reference compound] | – | – | – | – | – | lethality ([6]; RXF 944, 2.5 mg/kg/day): 0/6; optimal T/C ([6]; RXF 944, 2.5 mg/kg/day): 41.1%; IC50 ([8]; Mus musculus, Bone marrow cell, 168 h, murine bone marrow cells, GM-CSF, 7 days, read-out: IC50 values of toxicity against hemopoietic stem cells): 3 ng/mL (≈ 8.61 nM)
CC[C@@]1(O)C(=O)OCc2c1cc1n(c2=O)Cc2cc3c(CN(C)C)c(O)ccc3nc2-1 [topotecan, reference compound] | – | – | – | – | – | lethality ([6]; RXF 944, 1.8 mg/kg/day): 0/7; optimal T/C ([6]; RXF 944, 1.8 mg/kg/day): 47.8%
